Test results published in ChEMBL document CHEMBL1201862, “PubChem BioAssay data set” (2004).
Calls of active or inactive are those of the source. Cut-off read from the data, not from the text of the source, for most assays here: actives have a measured EC50 and inactives only a lower limit.

Columns and labels:
[1] = alpha-synuclein stem-loop luciferase translation blockers – H4 neuroglioma cells, luminescence, confirmation (AID 1988); assay type: functional, cell-based
[2] = luciferase reporter signal suppression in cells – H4 neuroglioma cells, luminescence, dose response (AID 1990); assay type: functional, cell-based
[3] = Luminescence Cell-Based Dose Response HTS to Identify Inhibitors of 5'UTR Stem-Loop Driven Prion Protein mRNA Translation in H4 Neuroglioblastoma Cells. [Related pubchem assays: 1827 (Project Summary), 1813 (Primary HTS)]; assay type: functional
[4] = NIH-3T3 fibroblast cytotoxicity, dose response, cytotoxicity control, cell-based, fluorescence, Alamar Blue, secondary assay (AID 2327); assay type: functional;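 note: NIH-3T3 mouse fibroblasts cultured with fluconazole at 8 µg/mL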
[5] = viability of uninfected HEp-2 cells – cell-based, HTS, cytotoxicity control for RSV inhibitor project, dose response (AID 2410); assay type: functional; conditions: human respiratory syncytial virus
[6] = target: Cytochrome P450 2C9 (Homo sapiens, UniProt P11712)
Chain of Cytochrome P450 2C9 (P11712 whole entry): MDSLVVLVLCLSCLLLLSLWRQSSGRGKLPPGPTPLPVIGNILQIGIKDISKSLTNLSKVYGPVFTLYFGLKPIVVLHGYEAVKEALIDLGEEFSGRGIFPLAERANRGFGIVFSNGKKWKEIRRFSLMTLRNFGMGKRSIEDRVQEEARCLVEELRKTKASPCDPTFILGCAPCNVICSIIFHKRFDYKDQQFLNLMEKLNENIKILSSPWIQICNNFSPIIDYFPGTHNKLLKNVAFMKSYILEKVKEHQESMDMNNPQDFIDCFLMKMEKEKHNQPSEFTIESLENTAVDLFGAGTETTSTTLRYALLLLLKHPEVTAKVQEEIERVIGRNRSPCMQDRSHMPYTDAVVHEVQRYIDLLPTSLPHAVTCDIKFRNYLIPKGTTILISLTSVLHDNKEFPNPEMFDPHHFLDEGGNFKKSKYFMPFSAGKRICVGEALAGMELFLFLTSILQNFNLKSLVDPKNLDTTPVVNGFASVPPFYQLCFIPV

[7] = test system: INS1; experiment: INS-1E survival protection against cytokine death – cell-based, luminescence, retest, dose response (AID 449756); assay type: functional; conditions: Rattus norvegicus;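 note: cell death triggered by IL-1 beta plus TNF-alpha plus IFN-gamma mixture; protective hits raise ATP signal compared with cytokine alone wells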
[8] = Luminescence Cell-Based Dose Retest to Confirm Inhibitors of Cancer Stem Cells. [Related pubchem assays (depositor defined):AID2717, AID2721]; assay type: functional; conditions: Homo sapiens
[9] = Trypanosoma cruzi growth suppression in host cells – NIH3T3 host cells, beta-gal luminescence, confirmation (AID 2044); assay type: functional, cell-based;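 note: intracellular parasites grown in NIH/3T3 mouse fibroblasts as host cells; luminescent beta-galactosidase reporter signal from transgenic T. cruzi replicating inside host cells; inhibitors lower the luminescence signal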
[10] = NIH3T3 cell viability loss – ATP luminescence, mouse fibroblasts, counter-screen, dose response (AID 2010); assay type: functional, cell-based;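 note: cells exposed to compound for about 90 hours before reading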

With `Cc1nc(C(=O)O)nn1-c1ccc([N+](=O)[O-])cc1` the EC50 [1] was > 120 µM (not active), the EC50 [2] was > 120 µM (not active) and the EC50 [3] was 118 µM (active).
For `CC(=O)c1nn(-c2cccc(Br)c2)cc1C(=O)c1ccc(C)cc1`, the EC50 [4] was > 150 µM (inactive).
With `C=CCn1c(S)nnc1-c1cc2cccc(OC)c2o1` the CC50 [5] was 21.4 µM (active).
In the case of `Cc1cc(N)n(-c2ccc3ccccc3c2)n1`, the AC50 [6] is reported as 35.5 µM (inconclusive).
With `CCOc1ccc(C(=O)C[n+]2ccccc2C)cc1` the EC50 [1] was > 120 µM (not active) and the EC50 [2] was > 120 µM (not active).
In the case of `COc1ccc(C2/C=C\CN(C(=O)Nc3ccc(C(F)(F)F)cc3)CC(=O)N2Cc2ccc(F)cc2)cc1` (configuration not stated), the EC50 [1] is reported as 10.8 µM (active), the AC50 [7] is reported as 6.64 µM (active) and the EC50 [2] is reported as 10.2 µM (active). The EC50 [3] was > 120 µM (not active).
For `Cc1ccccc1N1C(=O)C(Oc2ccc(Cl)cc2)C1CNCCCOC(C)C` (configuration not stated), the EC50 [1] was > 120 µM (not active), the EC50 [2] was 27 µM (active) and the EC50 [3] was 119 µM (active).
In the case of `Cc1c2c(nc3ccccc13)CCC(C)C2` (configuration not stated), the CC50 [5] is reported as > 50 µM (active).
In the case of `O=C(N/N=C/c1ccc(O)cc1)c1ccc(COc2cc(Cl)ccc2Cl)o1`, the AC50 [6] is reported as 6.31 µM (inconclusive).
For `CCOC(=S)SCC(=O)Nc1nc(-c2ccc(Br)cc2)cs1`, the EC50 [1] was 5.28 µM (active), the EC50 [2] was 8.41 µM (active) and the EC50 [3] was 8.99 µM (active). For the same compound, the AC50 [8] was 0.722 µM (active).
With `CCc1ccc(-c2cc(C(=O)NCCCn3ccnc3)c3ccccc3n2)s1` the CC50 [5] was 28.4 µM (active).
With `CCc1ccc(/C(C)=N\Nc2ccc([N+](=O)[O-])cc2)cc1` the EC50 [4] was > 160 µM (inactive).
In the case of `CCOC(=O)c1c(NC(=O)C2=C(C)N=C(S)NC2c2ccc(F)cc2)sc(C)c1C` (configuration not stated), the EC50 [1] is reported as > 120 µM (not active), the EC50 [2] is reported as > 120 µM (not active) and the EC50 [3] is reported as > 120 µM (not active).
With `C=CCn1c(SCC(C)=O)nc2scc(-c3ccc(C)o3)c2c1=O` the CC50 [5] was 13.5 µM (active).
For `COc1cc(C=O)ccc1OCCCOc1ccccc1C(=O)O`, the AC50 [6] was 17.8 µM (inconclusive).
For `CC1=CC(C)(C)Nc2ccccc21`, the EC50 [1] was > 120 µM (not active), the EC50 [9] was 4.5 µM (active) and the EC50 [2] was > 120 µM (not active). The EC50 [3] was > 120 µM (not active) and the EC50 [10] was > 60 µM (not active).
For `Oc1ccc(Cl)cc1-c1cc(C(F)(F)C(F)F)nc(-c2ccccc2)n1`, the EC50 [1] was > 120 µM (not active), the EC50 [2] was > 120 µM (not active) and the EC50 [3] was > 120 µM (not active).
With `Cc1ccc(N2NC3(CCN(C(N)=O)CC3)NC2=O)cc1` the EC50 [4] was 28.6 µM (active).
With `Nc1ccc(S(=O)(=O)Nc2cnc3ccccc3n2)cc1` [SULFAQUINOXALINE] the AC50 [6] was 3.98 µM (inconclusive).
For `Oc1c([C@H](Nc2ccccn2)c2ccccc2)ccc2cccnc12`, the AC50 [6] was 6.31 µM (inconclusive).
With `CCOc1cc(C(=O)NCC(C)(C)CNC(=O)c2cc(OCC)c(OCC)c(OCC)c2)cc(OCC)c1OCC` the CC50 [5] was 27.7 µM (active).
For `Cc1cccc(NC(=O)Nc2cccc(C#N)c2)n1`, the CC50 [5] was > 50 µM (active).
For `CC(=O)O/N=C/c1c(NCc2ccccc2)nc2c(C)cccn2c1=O`, the CC50 [5] was 31.1 µM (active).
